According to patent US7772271B2 (priority 2004, dated 2010):

Row | melting point | SMILES
1 | 170 to 180 °C | CC(C)NC(=O)Nc1ccc(-c2c(C#N)c3ccc(OCCS(C)(=O)=O)cc3n2C2CCC2)cc1 [Compound 2873]
2 | 241 to 243 °C | N#Cc1c(-c2ccc(NS(=O)(=O)C3CC3)cc2)n(C2CC2)c2cc(N3CCOCC3)ccc12 [Compound 2877]
3 | 210 to 212 °C | CC(C)NC(=O)Nc1ccc(-c2c(C#N)c3ccc(OC4COCOC4)cc3n2C2CCC2)cc1 [Compound 2882]
4 | 189 to 190 °C | C[C@@H](OC(=O)Nc1ccc(-c2c(C#N)c3ccc(OC4COCOC4)cc3n2C2CCC2)cc1)C(F)(F)F [Compound 2885]
5 | 129 to 130 °C | Cc1cc(-c2c(C#N)c3ccc(OC4CCOCC4)cc3n2C2CCC2)ccc1NC(=O)OC(C)C [Compound 2889]
6 | 208 to 210 °C | CC(C)OC(=O)Nc1ccc(-c2c(C#N)c3ccc(OC4COCOC4)cc3n2C2CCC2)cc1 [Compound 2894]
7 | 247 to 249 °C | CS(=O)(=O)Nc1ccc(-c2c(C#N)c3ccc(C(=O)N4CCOCC4)cc3n2C2CCC2)cc1 [Compound 2897]
8 | 220 to 222 °C | CCS(=O)(=O)Nc1ccc(-c2c(C#N)c3ccc(C(=O)N4CCOCC4)cc3n2C2CCC2)cc1 [Compound 2898]
9 | 169 to 171 °C | CC(C)S(=O)(=O)Nc1ccc(-c2c(C#N)c3ccc(C(=O)N4CCOCC4)cc3n2C2CCC2)cc1 [Compound 2899]
10 | 198 to 200 °C | N#Cc1c(-c2ccc(NS(=O)(=O)C3CCC3)cc2)n(C2CCC2)c2cc(C(=O)N3CCOCC3)ccc12 [Compound 2900]
11 | 210 to 212 °C | CC(C)CS(=O)(=O)Nc1ccc(-c2c(C#N)c3ccc(C(=O)N4CCOCC4)cc3n2C2CCC2)cc1 [Compound 2901]
12 | 223 to 227 °C | CCCS(=O)(=O)Nc1ccc(-c2c(C#N)c3ccc(Oc4nccc(C)n4)cc3n2C2CCC2)cc1 [Compound 2902]
13 | 172 to 174 °C | Cc1ccnc(Oc2ccc3c(C#N)c(-c4ccc(NS(=O)(=O)C5CC5)cc4)n(C4CCC4)c3c2)n1 [Compound 2903]
14 | 182 to 186 °C | COc1ccnc(Oc2ccc3c(C#N)c(-c4ccc(NS(=O)(=O)CC(C)C)cc4)n(C4CCC4)c3c2)n1 [Compound 2904]
15 | 191 to 194 °C | N#Cc1c(-c2ccc(NS(=O)(=O)C3CC3)cc2)n(CC2CC2)c2cc(N3CCCCC3)ccc12 [Compound 2908]
16 | 162 to 164 °C | C[C@@H](OC(=O)Nc1ccc(-c2c(C#N)c3ccc(OC4CCOCC4)cc3n2C2CC2)cc1)C(F)(F)F [Compound 2910]
17 | 205 to 207 °C | CS(=O)(=O)Nc1ccc(-c2c(C#N)c3ccc(OC4CCOCC4)cc3n2C2CC2)cc1 [Compound 2911]
18 | 212 to 214 °C | CCS(=O)(=O)Nc1ccc(-c2c(C#N)c3ccc(OC4CCOCC4)cc3n2C2CC2)cc1 [Compound 2912]

Row | melting point | SMILES
19 | 290 to 292 °C | N#Cc1c(-c2ccc(N3CCCS3(=O)=O)cc2)n(C2CCC2)c2cc(N3CCOCC3)ccc12 [Compound 2914]
20 | 269 to 271 °C | CS(=O)(=O)Nc1ccc(-c2c(C#N)c3ccc(N4CCOCC4)cc3n2C2CCC2)cc1 [Compound 2915]
21 | 175 to 177 °C | CC(C)CS(=O)(=O)Nc1ccc(-c2c(C#N)c3ccc(OC4COCOC4)cc3n2C2CCC2)cc1 [Compound 2917]
22 | 195 to 196 °C | N#Cc1c(-c2ccc(NS(=O)(=O)C3CCCC3)cc2)n(C2CCC2)c2cc(OC3COCOC3)ccc12 [Compound 2918]
23 | 200 to 204 °C | N#Cc1c(-c2ccc(NS(=O)(=O)C3CCC3)cc2)n(C2CCC2)c2cc(OC3COCOC3)ccc12 [Compound 2919]
24 | 196 to 198 °C | CC(C)S(=O)(=O)Nc1ccc(-c2c(C#N)c3ccc(OC4COCOC4)cc3n2C2CCC2)cc1 [Compound 2920]
25 | 216 to 217 °C | N#Cc1c(-c2ccc(NS(=O)(=O)C3CC3)cc2)n(C2CCC2)c2cc(OC3COCOC3)ccc12 [Compound 2928]
26 | 227 to 229 °C | CCCS(=O)(=O)Nc1ccc(-c2c(C#N)c3ccc(Oc4nccnc4Cl)cc3n2C2CCC2)cc1 [Compound 2930]
27 | 227 to 230 °C | CCCS(=O)(=O)Nc1ccc(-c2c(C#N)c3ccc(Oc4nccnc4C)cc3n2C2CCC2)cc1 [Compound 2931]
28 | 224 to 225 °C | CCCS(=O)(=O)Nc1ccc(-c2c(C#N)c3ccc(-c4c(C)noc4C)cc3n2C2CCC2)cc1 [Compound 2932]
29 | 219 to 224 °C | N#Cc1c(-c2ccc(N3CCCS3(=O)=O)cc2)n(C2CC2)c2cc(OC3CCOCC3)ccc12 [Compound 2941]
30 | 173 to 175 °C | CCCS(=O)(=O)Nc1ccc(-c2c(C#N)c3ccc(Oc4cccnc4Cl)cc3n2C2CCC2)cc1 [Compound 2945]
31 | 144 to 146 °C | CC(C)NS(=O)(=O)Nc1ccc(-c2c(C#N)c3ccc(Oc4nccnc4Cl)cc3n2C2CCC2)cc1 [Compound 2946]
32 | 130 °C (dec.) | CC(C)NS(=O)(=O)Nc1ccc(-c2c(C#N)c3ccc(Oc4nccnc4Cl)cc3n2C2CC2)cc1 [Compound 2947]
33 | 206 to 208 °C | N#Cc1c(-c2ccc(NS(=O)(=O)NCC3CC3)cc2)n(C2CCC2)c2cc(Oc3nccnc3Cl)ccc12 [Compound 2948]
34 | 181 to 183 °C | N#Cc1c(-c2ccc(NS(=O)(=O)NCC3CC3)cc2)n(C2CC2)c2cc(Oc3nccnc3Cl)ccc12 [Compound 2949]
35 | 241 to 244 °C | CC(C)OC(=O)Nc1ccc(-c2c(C#N)c3ccc(N4CCCC4)cc3n2C2CCC2)cc1 [Compound 2954]

More lines, now with the values behind:

Row | SMILES | melting point
36 | N#Cc1c(-c2ccc(NC(=O)NC3CCC3)cc2)n(CC2CC2)c2cc(N3CCOCC3)ccc12 [Compound 2876] | 170 to 230 °C
37 | CCOc1ccc2c(C#N)c(-c3ccc(NC(=O)O[C@H](C)C(F)(F)F)cc3)n(C3CCC3)c2c1 [Compound 2878] | 196 to 199 °C
38 | C[C@@H](OC(=O)Nc1ccc(-c2c(C#N)c3ccc(OCCF)cc3n2C2CCC2)cc1)C(F)(F)F [Compound 2879] | 198 to 200 °C
39 | C[C@@H](OC(=O)Nc1ccc(-c2c(C#N)c3ccc(OC(F)F)cc3n2C2CCC2)cc1)C(F)(F)F [Compound 2880] | 161 to 162 °C
40 | CCn1ccnc1COc1ccc2c(C#N)c(-c3ccc(NC(=O)OC(C)C)cc3)n(C3CCC3)c2c1 [Compound 2881] | 197 to 203 °C
41 | CCCS(=O)(=O)Nc1ccc(-c2c(C#N)c3ccc(N4CCOCC4)cc3n2CC2CC2)cc1 [Compound 2890] | 186 to 189 °C
42 | CC(C)OC(=O)Nc1ccc(-c2c(C#N)c3ccc(N4CCOCC4)cc3n2CC2CC2)cc1 [Compound 2891] | 170 to 180 °C
43 | CC(C)OC(=O)Nc1ccc(-c2c(C#N)c3ccc(N4CCCCC4)cc3n2CC2CC2)cc1 [Compound 2892] | 145 to 148 °C
44 | C[C@@H](OC(=O)Nc1ccc(-c2c(C#N)c3ccc(N4CCCCC4)cc3n2CC2CC2)cc1)C1CC1 [Compound 2907] | 127 to 132 °C
45 | Cc1nccnc1Oc1ccc2c(C#N)c(-c3ccc(NC(=O)O[C@H](C)C4CC4)cc3)n(C3CCC3)c2c1 [Compound 2909] | 201 to 202 °C
46 | Cc1ccnc(Oc2ccc3c(C#N)c(-c4ccc(NC(=O)O[C@H](C)C5CC5)cc4)n(C4CCC4)c3c2)n1 [Compound 2913] | 172 to 174 °C
47 | N#Cc1c(-c2ccc(N3CCCS3(=O)=O)cc2)n(CC2CC2)c2cc(N3CCOCC3)ccc12 [Compound 2921] | 241 to 245 °C
48 | CCc1cnc(Oc2ccc3c(C#N)c(-c4ccc(NC(=O)O[C@H](C)C5CC5)cc4)n(C4CCC4)c3c2)nc1 [Compound 2923] | 158 to 160 °C
49 | C[C@@H](OC(=O)Nc1ccc(-c2c(C#N)c3ccc(Oc4nccc(C(F)(F)F)n4)cc3n2C2CCC2)cc1)C1CC1 [Compound 2924] | 119 to 121 °C
50 | CCn1c(-c2ccc(N3CCCS3(=O)=O)cc2)c(C#N)c2ccc(N3CCOCC3)cc21 [Compound 2926] | 247 to 248 °C
51 | N#Cc1c(-c2ccc(N3CCCS3(=O)=O)cc2)n(C2CC2)c2cc(N3CCOCC3)ccc12 [Compound 2927] | 260 to 265 °C
52 | CCn1c(-c2ccc(NC(=O)O[C@H](C)C(F)(F)F)cc2)c(C#N)c2ccc(Oc3ncccn3)cc21 [Compound 2929] | 221 to 223 °C
53 | C[C@@H](OC(=O)Nc1ccc(-c2c(C#N)c3ccc(N4CCOCC4)cc3n2CC2CC2)cc1)C1CC1 [Compound 2933] | 167 to 173 °C
54 | CC(C)OC(=O)Nc1ccc(-c2c(C#N)c3ccc(N4CCOCC4)cc3n2C(C)C)cc1 [Compound 2934] | 192 to 195 °C
55 | CCCS(=O)(=O)Nc1ccc(-c2c(C#N)c3ccc(Oc4ncccc4C(F)(F)F)cc3n2C2CC2)cc1 [Compound 2935] | 216 to 217 °C
56 | CCCS(=O)(=O)Nc1ccc(-c2c(C#N)c3ccc(Oc4cccnc4Cl)cc3n2C2CC2)cc1 [Compound 2936] | 209 to 210 °C
57 | CCCS(=O)(=O)Nc1ccc(-c2c(C#N)c3ccc(Oc4nccnc4Cl)cc3n2C2CC2)cc1 [Compound 2937] | 183 to 184 °C
58 | CCCS(=O)(=O)Nc1ccc(-c2c(C#N)c3ccc(Oc4nccnc4C)cc3n2C2CC2)cc1 [Compound 2938] | 191 to 193 °C
59 | CCCS(=O)(=O)Nc1ccc(-c2c(C#N)c3ccc(Oc4nccc(C)n4)cc3n2C2CC2)cc1 [Compound 2939] | 239 to 241 °C
60 | CCn1c(-c2ccc(N3CCCS3(=O)=O)cc2)c(C#N)c2ccc(OC3CCOCC3)cc21 [Compound 2940] | 222 to 227 °C
61 | CC(C)n1c(-c2ccc(NC(=O)O[C@H](C)C3CC3)cc2)c(C#N)c2ccc(N3CCOCC3)cc21 [Compound 2942] | 191 to 193 °C
62 | CCCS(=O)(=O)Nc1ccc(-c2c(C#N)c3ccc(Oc4ncccc4Cl)cc3n2C2CC2)cc1 [Compound 2943] | 215 to 217 °C
63 | CC(C)Nc1ccc(-c2c(C#N)c3ccc(Oc4ncccc4Cl)cc3n2C2CC2)cc1 [Compound 2951] | 196 to 197 °C
64 | CC(C)n1c(-c2ccc(NC(=O)O[C@H](C)C(F)(F)F)cc2)c(C#N)c2ccc(N3CCOCC3)cc21 [Compound 2952] | 148 to 150 °C
65 | CC(C)n1c(-c2ccc(NC(=O)O[C@H](C)c3ccc(F)cc3)cc2)c(C#N)c2ccc(N3CCOCC3)cc21 [Compound 2953] | 231 to 234 °C
